Experimental findings from US20130217702A1 (Richter Gedeon Nyrt., priority 2010, published 2013) are described below.

The target in assay [1] is T1, recombinant human B1 receptors (Homo sapiens, UniProt P46663).
T1 construct: host or cells: CHO (CHO-B1)
T1 sequence (P46663 1-353): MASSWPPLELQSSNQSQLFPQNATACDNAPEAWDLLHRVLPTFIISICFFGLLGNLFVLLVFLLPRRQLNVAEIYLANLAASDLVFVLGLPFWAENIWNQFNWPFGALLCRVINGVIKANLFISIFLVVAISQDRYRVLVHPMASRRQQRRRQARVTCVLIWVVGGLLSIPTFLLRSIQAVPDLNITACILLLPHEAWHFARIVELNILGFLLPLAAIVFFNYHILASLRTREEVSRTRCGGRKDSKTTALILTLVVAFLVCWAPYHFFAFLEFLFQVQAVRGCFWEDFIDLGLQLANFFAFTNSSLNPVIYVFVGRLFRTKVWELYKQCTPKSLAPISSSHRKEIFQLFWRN
Nature of the assay: Functional assay: antagonist potency by cytosolic calcium measurement (plate reader fluorimeter) in CHO-B1 cells, agonist LysDABK. The class given is cell-based. The following applies: CHO-B1 cells, inhibition of LysDABK (EC80)-evoked [Ca2+]i elevation; read-out: B1 func. How it is done: Assessment of Antagonist Potency at B1 Receptors In Vitro by Measurement of Cytosolic Calcium Ion Concentration with a Plate Reader Fluorimeter in Cells Expressing Recombinant Human B1 Receptors
Chinese hamster ovary (CHO) cells stably expressing recombinant human B1 (CHO-B1, Euroscreen) receptors were cultured in Dulbecco's Modified Eagle's Medium (DMEM) containing 10% Fetal Calf Serum (FCS), 100 U/ml penicillin, 0.1 mg/ml streptomycin, 0.25 μg/ml amphotericin B, 1% Minimum Essential Medium Eagle (MEM), non essential amino acid solution, 600 μg/ml G418. Cells were kept at 37° C. in a humidified incubator in an atmosphere of 5% CO2/95% air and were passaged 1:4 three times a week. Cells were plated at 1.5−2.5×10^4 cell/well on standard 96-well microplates, measurements of cytosolic calcium ion concentration ([Ca^2+]i) were carried out 1-2 days after cell plating.
Measurements of [Ca^2+]i were carried out on CHO-B1 cells stably expressing human B1 receptors, respectively. Cells were grown in standard 96-well microplates and before the measurement were loaded with a fluorescent Ca^2+-sensitive dye, fluo-4/AM (2 μM): after removing the culture medium the dye was added to the cells (dissolved in assay buffer: 145 mM NaCl, 5 mM KCl, 2 mM MgCl2, 2 mM CaCl2, 10 mM HEPES, 20 mM D-glucose, 2 mM probenecid, 100 μl/well) and cells were incubated at 37° C. in a humidified incubator in an atmosphere of 5% CO2/95% air for 40-120 min. To stop dye loading cells were washed twice with assay buffer. After washing, various concentrations of the test compounds (diluted in extracellular medium from a DMSO stock solution, final DMSO concentration was <0.1%) or buffer were added to each well depending on the experimental setup. After incubation at 37° C. for 20-25 min. baseline and agonist-evoked changes of [Ca^2+]; were measured column by column with a plate reader fluorimeter (Fluoroskan Ascent, Labsystems). Excitation and detection of emission was carried out from the bottom of the plate. Filters used for Fluo-4: excitation filter 485 nm, emission filter 538 nm. The whole measurement process was performed at 37° C. and was controlled by custom software. Inhibitory potency of the test compounds was assessed by measuring the reduction in the agonist-evoked [Ca^2+]i-elevation in the presence of different concentrations of the compounds. The agonist was LysDABK for CHO-B1 cells. Agonist was applied at an EC80 concentration; the EC80-values were derived from daily determined dose-response curves. Fluorescence data were expressed as ΔF/F (fluorescence change normalized to baseline). All treatments on a single plate were measured in multiple wells. Data from all wells with the same treatment were averaged and the average values were used for analysis. Inhibitory potency of a compound at a single concentration point was expressed as percent inhibition of the control agonist response. Sigmoidal concentration-inhibition curves were fitted to the data (derived from at least three independent experiments) and IC50-values were determined as the concentration that produces half of the maximal inhibition caused by the compound.

Assay [2] has as its target T2, human recombinant bradykinin B1 receptor (Homo sapiens, UniProt P46663).
T2 construct: host or cells: CHO cells, clone hB1-A5
T2 sequence (P46663 1-353): T1 sequence (P46663 1-353)
Nature of the assay: Human recombinant bradykinin B1 receptor competitive radioligand binding. The following applies: hB1 expressed in CHO cells, [3H]-[Des-Arg10] Kallidin radioligand; read-out: B1 binding. Here is the method: Assessment of Ligand Binding Affinity to B1 and B2 Receptors In Vitro by Competitive Radioligand Binding Assay
Binding assays were carried out on human recombinant bradykinin) receptors (expressed in CHO cells, hB1-A5) according to the Euroscreen Technical Data Sheet (Cat.No.:ES-091). 20 μg protein/tube was incubated with [3,4-prolyl-3,4-^3H(N)]-[Des-Arg^10] Kallidin as radioligand. Non specific binding was determined in the presence of 10 μM Lys-des-Arg^9-Bradykinin. The final incubation volume was 250 μl. Samples were incubated for 15 min. at 25° C. then were rapidly vacuum filtered through GF/B filters presoaked for at least 1 h in 0.5% PEI. Radioactivity was determined by liquid scintillation spectroscopy.
The ligand displacement by the compounds was determined using a minimum of seven concentrations in triplicate, and experiments were repeated at least two times. The specific radioligand binding is defined as the difference between total binding and the non-specific binding determined in the presence of an excess of unlabelled ligand. Results are expressed as a percent inhibition of specific binding obtained in the presence of RGH-478 or reference drugs. IC50 values (i.e. concentration of compound giving 50% inhibition of specific binding) were calculated from concentration-displacement curves by sigmoidal fitting using GraphPad Prism Software 4.0. Ki values (i.e. inhibition constants) were calculated using the Cheng-Prusoff equation. KD was determined from the Scatchard plot. (Editor-in-chief: Enna, S. J. and Williams, M. Current protocols in pharmacology vol. 1. John Wiley & sons Inc., 1998)

A value given as a limit tells only on which side of the number the result lay.

For the compound `COc1cc(C(=O)NC2(C(=O)NCc3ccc(-n4c(-c5noc(C)n5)c(Cl)c5cc(F)ccc54)cn3)CC2)on1` [Example 62, 3-Methoxy-isoxazole-5-carboxylic acid [1-({5-[3-chloro-5-fluoro-2-(5-methyl-[1,2,4]oxadiazol-3-yl)-indol-1-yl]-pyridin-2-ylmethyl}-carbamoyl)-cyclopropyl]-amide], the IC50 in assay [1] was under 0.02 µM. Moreover, the Ki in assay [2] is under 0.02 µM.

For the compound `Cc1nc(-c2c(Cl)c3ccccc3n2-c2ccc(CNC(=O)C3(NC(=O)c4scnc4C)CC3)cc2)no1` [Example 149, 4-Methyl-thiazole-5-carboxylic acid (1-{4-[3-chloro-2-(5-methyl-[1,2,4]oxadiazol-3-yl)-indol-1-yl]-benzylcarbamoyl}-cyclopropyl)-amide], in assay [1], the IC50 lay in the range of 0.02 to 0.1 µM. In addition, the Ki in assay [2] was under 0.02 µM.

In the case of `CCc1cc(C(=O)NC2(C(=O)NCc3ccc(-n4c(-c5noc(C)n5)c(Cl)c5ccccc54)cc3)CC2)on1` [Example 123, 3-Ethyl-isoxazole-5-carboxylic acid (1-{4-[3-chloro-2-(5-methyl-[1,2,4]oxadiazol-3-yl)-indol-1-yl]-benzylcarbamoyl}-cyclopropyl)-amide], the IC50 in assay [1] was under 0.02 µM. For the same compound, the Ki in assay [2] is under 0.02 µM.

As for `Cn1nnc(-c2c(Cl)c3ccccc3n2-c2ccc(CNC(=O)C3(NC(=O)c4cncc(C(F)(F)F)c4)CC3)cc2)n1` [Example 30, N-(1-{4-[3-chloro-2-(2-methyl-2H-tetrazol-5-yl)-indol-1-yl]-benzylcarbamoyl}-cyclopropyl)-5-trifluoromethyl-nicotinamide], the IC50 in assay [1] was under 0.02 µM. The Ki in assay [2] is under 0.02 µM.

With `Cc1nc(-c2c(Cl)c3ccccc3n2-c2ccc(CNC(=O)C3(NC(=O)c4cccc(F)c4)CC3)cc2)no1` [Example 178, N-(1-{4-[3-Chloro-2-(5-methyl-[1,2,4]oxadiazol-3-yl)-indol-1-yl]-benzylcarbamoyl}-cyclopropyl)-3-fluoro-benzamide], in assay [1], the IC50 is under 0.02 µM. Besides, the Ki in assay [2] is under 0.02 µM.

For the compound `COC(=O)c1c(Cl)c2ccccc2n1-c1ccc(CNC(=O)C2(NC(=O)C(F)(F)F)CC2)cc1` [Example 10, 3-Chloro-1-[4-({[1-(2,2,2-trifluoro-acetylamino)-cyclopropanecarbonyl]-amino}-methyl)-phenyl]-1H-indole-2-carboxylic acid methyl ester], the IC50 in assay [1] is under 0.02 µM. In addition, the Ki in assay [2] was under 0.02 µM.

On to `Cc1cnc(C(=O)NC2(C(=O)NCc3ccc(-n4c(-c5nnn(C)n5)c(Cl)c5ccccc54)cc3)CC2)cn1` [Example 25, 5-Methyl-pyrazine-2-carboxylic acid (1-{4-[3-chloro-2-(2-methyl-2H-tetrazol-5-yl)-indol-1-yl]-benzylcarbamoyl}-cyclopropyl)-amide], for which the IC50 in assay [1] was in the range of 0.02 to 0.1 µM. The Ki in assay [2] was under 0.02 µM.

Take `Cc1nc(-c2c(Cl)c3ccccc3n2-c2ccc(CNC(=O)C3(NC(=O)C(F)(F)F)CC3)cc2)no1` [Example 23, 1-(2,2,2-Trifluoro-acetylamino)-cyclopropanecarboxylic acid 4-[3-chloro-2-(5-methyl-[1,2,4]oxadiazol-3-yl)-indol-1-yl]-benzylamide]: the IC50 in assay [1] was under 0.02 µM. Besides, the Ki in assay [2] is under 0.02 µM.

With `Cc1nc(-c2c(Cl)c3ccccc3n2-c2ccc(CNC(=O)C3(NC(=O)c4cncnc4)CC3)cc2)no1` [Example 166, Pyrimidine-5-carboxylic acid (1-{4-[3-chloro-2-(5-methyl-[1,2,4]oxadiazol-3-yl)indol-1-yl]-benzylcarbamoyl}-cyclopropyl)-amide], in assay [1], the IC50 was under 0.02 µM. Moreover, the Ki in assay [2] was under 0.02 µM.

For `Cc1nc(-c2cc3cc(Cl)ccc3n2-c2ccc(CNC(=O)C3(NC(=O)CC(F)(F)F)CC3)cc2)no1` [Example 127, 1-(3,3,3-Trifluoro-propionylamino)-cyclopropanecarboxylic acid 4-[5-chloro-2-(5-methyl-[1,2,4]oxadiazol-3-yl)-indol-1-yl]-benzylamide], the IC50 in assay [1] was under 0.02 µM. Further, the Ki in assay [2] is under 0.02 µM.
